Assay results reported in US7217688B2, “Methods and compositions for derepression of IAP-inhibited caspase” (The Burnham Institute, priority 2005, dated 2007).
pEC50: −log10 of the molar value. Blank lines part the entries; values can stand above or below the compound they belong to. Square brackets hold non-standard residues; d marks the D form. Ends that are not written are not given here. * marks the point of attachment. Phe(4-Cl) = N[C@@H](Cc1ccc(Cl)cc1)C(=O)O; dPhe(4-Cl) = N[C@H](Cc1ccc(Cl)cc1)C(=O)O; dPhe(4-F) = N[C@H](Cc1ccc(F)cc1)C(=O)O; 2Nal = N[C@@H](Cc1ccc2ccccc2c1)C(=O)O; d2Nal = N[C@H](Cc1ccc2ccccc2c1)C(=O)O; Fmoc = O=C(OCC1c2ccccc2-c2ccccc21)*; 2Thi = N[C@@H](Cc1cccs1)C(=O)O; Cha = N[C@@H](CC1CCCCC1)C(=O)O

Tests used:
[1] = biological target: T1, XIAP-inhibited caspase-3 (Homo sapiens, UniProt P98170); test: caspase derepression assay (XIAP-inhibited caspase-3, Ac-DEVD-AFC hydrolysis); format: biochemical; conditions: for Activity: Table XIV, XIAP derepression assay; for LC (lowest concentration with a ratio of 2 or higher in the derepression assay): tested at 0.4, 2, 10 and 50 micrograms per milliliter; for reversing XIAP-mediated suppression of caspase 3: 50 μg/ml, full length XIAP
T1 construct: in the derepression assay using full length XIAP; made in house; host or cells: bacteria
T1 sequence (P98170 whole entry): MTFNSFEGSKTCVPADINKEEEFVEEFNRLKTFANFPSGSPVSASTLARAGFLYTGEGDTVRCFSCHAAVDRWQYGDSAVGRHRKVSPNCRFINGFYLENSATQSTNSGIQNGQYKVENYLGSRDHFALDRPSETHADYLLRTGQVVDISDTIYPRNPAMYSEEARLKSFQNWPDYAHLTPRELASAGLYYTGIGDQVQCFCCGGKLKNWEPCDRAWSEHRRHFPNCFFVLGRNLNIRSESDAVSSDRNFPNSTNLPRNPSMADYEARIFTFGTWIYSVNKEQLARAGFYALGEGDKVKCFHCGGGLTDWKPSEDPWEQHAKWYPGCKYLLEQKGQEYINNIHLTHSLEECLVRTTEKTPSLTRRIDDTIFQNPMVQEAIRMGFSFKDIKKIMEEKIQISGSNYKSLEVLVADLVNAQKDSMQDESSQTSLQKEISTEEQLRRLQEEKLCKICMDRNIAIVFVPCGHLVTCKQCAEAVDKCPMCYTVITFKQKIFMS
Description: Caspase activity was assayed by release of 7-amino-4-trifluoromethyl-coumarin (AFC) from Ac-DEVD-AFC synthetic peptide using a Molecular Devices Spectromax 340 (see Zhou et al., J. Biol. Chem. 272:7797–7800 (1997)). […] The ratio of Vmax for hydrolysis of Ac-DEVD-AFC in the presence and absence of the candidate mixture was calculated and used to identify those that contain an agent that derepresses an IAP-inhibited caspase.
Screening of each mixture from the DCR390, TPI 1239 or TPI 1328 library, respectively, using the above described assay was carried out as follows. Each mixture was aliquoted in a 25 microliter volume and in duplicate to a well of a 96 well microtiter plate. […] Fluorescence of liberated AFC was immediately detected from each well for 30 minutes at 30 second intervals. The Vmax for hydrolysis of AC-DEVD-AFC from each well was measured using the softmax software package. Results of the screen for the DCR390 library are shown in Table I. Sets of mixtures having the same position fixed with different respective amino acids are arranged in 6 sections identified with the position number. […] The mixture in each section are arranged in descending order according to apparent velocity in the second column.
Briefly, recombinant proteins were produced in bacteria and purified as described, for example, in Deveraux et al., Nature 388:300–304(1997). […] Generation of fluorogenic AFC (7-amino-4-trifluoromethyl coumarin) product was measured with a spectrofluorometric plate reader in kinetic mode for 30 minutes at 37° C. using excitation and emission wavelengths of 405 nm and 510 nm, respectively. […] Control reactions lacked XIAP, and all assays were conducted in the linear range of substrate hydrolysis to avoid substrate depletion artifacts.

[2] = system: Jurkat leukemia cells; test: Jurkat cell death (Annexin V / propidium iodide flow cytometry); format: cell-based; conditions: for ability to induce apoptosis in Jurkat cells: micromolar concentrations, compared to DMSO control
Description: The following assay was used to test the ability of individual compounds from the TPI 1396 and TPI 1391 libraries to induce apoptosis of cultured tumor cell lines. Each of the compounds listed in Table IX was individually added to Jurkat leukemia cells (6.25×10^5 cells/mL) in RPMI containing 2.5% FBS at various concentrations for 20 hours. After incubation, cells were washed and stained with FITC-conjugated Annexin V antibody and propidium iodide (Biovision; Mountain View, Calif.). Cells were incubated for 20 minutes at room temperature in the dark and fluorescence was measured by flow cytometry (FACScan, Immunocytometry system; Becton-Dickinson; San Jose, Calif.). Cells staining positive for Annexin V were deemed non-viable.

[3] = biological target: full length XIAP (Homo sapiens, UniProt P98170); test: potency of IAP antagonists at restoring caspase-3 activity / SMAC competition assay (Table VIII)
Sequence of full length XIAP (P98170 whole entry): as above

[4] = system: NCI panel of 60 tumor cell lines; test: NCI panel of 60 tumor cell lines, protein-based colorimetric assay; design: species or system human; conditions: 48 hours
Description: Selected polyphenylurea compounds were tested on the National Cancer Institute (NCI) panel of 60 tumor cell lines (see FIG. 28a and FIG. 29).

[5] = Table XI, different functionalities at R2

- Activity [1]: 103 µM
Compound: COc1ccc(CCN2CCC[C@H]2CN(C)[C@@H](CNC(=O)Nc2ccccc2)CC2CCCCC2)cc1 [TPI 1572-14]

- Activity [1]: 157 µM
Compound: COc1ccc(CCN2CCC[C@@H]2CN(C)CCNC(=O)Nc2ccccc2)cc1 [TPI 1577-2]

- Activity [1]: 113 µM
Compound: CN(C[C@H]1CCCN1CCc1ccccc1)[C@@H](CNC(=O)Nc1ccccc1)CC1CCCCC1 [TPI 1577-6]

- Activity [1]: 79 µM
Compound: COc1ccc(CCN2CCC[C@H]2CN(C(=O)Nc2ccc(F)cc2)[C@@H](CNC(=O)Nc2ccc(F)cc2)CC2CCCCC2)cc1 [TPI 1572-22]

- Activity [1]: 252 µM
Compound: COc1ccc(CCN2CCC[C@@H]2CN(C)[C@H](C)CNC(=O)Nc2ccccc2)cc1 [TPI 1577-1]

- Activity [1]: 23 µM
Compound: COc1ccc(CCN2CCC[C@@H]2CN(C)[C@@H](CNC(=O)Nc2ccc3ccccc3c2)CC2CCCCC2)cc1 [TPI 1577-9]
- ability to induce apoptosis in Jurkat cells [2]: capable of inducing apoptosis

- Activity [1]: 89 µM
Compound: CCN1CCC[C@H]1CN(C(=O)Nc1ccccc1)[C@@H](CNC(=O)Nc1ccccc1)CC1CCCCC1 [TPI 1572-11]

- reversing XIAP-mediated suppression of caspase 3 [1]: Active
Compound: (L-Ala)-(D-Trp)-(L-Trp)-(L-ThiAla) (A[dW]W[2Thi]) [TPI 1332-47]

- Activity [1]: 235 µM
Compound: CCNC(=O)NC[C@@H](CC1CCCCC1)N(C[C@@H]1CCCN1CCc1ccc(OC)cc1)C(=O)NCC [TPI 1572-20]

- Activity [1]: >219 µM
Compound: COc1ccc(CCN2CCC[C@H]2CN(C(C)=O)[C@@H](CNC(C)=O)CC2CCCCC2)cc1 [TPI 1572-19]

- Activity [1]: >210 µM
Compound: O=C(NC[C@@H](CC1CCCCC1)N(C[C@@H]1CCCN1)C(=O)Nc1ccccc1)Nc1ccccc1 [TPI 1572-10]

- Activity [1]: 122 µM
Compound: COc1ccc(CCN2C[C@@H](O)C[C@@H]2CN(C)[C@@H](CNC(=O)Nc2ccccc2)CC2CCCCC2)cc1 [TPI 1567-24]

- LC (lowest concentration with a ratio of 2 or higher in the derepression assay) [1]: 2 µg/mL
Compound: (D-Nal)-(L-Nal)-(L-pClPhe)-(Lys-εFmoc) ([d2Nal][2Nal][Phe(4-Cl)]K(Fmoc)) [TPI 792-15]

- Activity [1]: 71 µM
Compound: CN(C[C@H]1CCCN1CCc1ccc(F)cc1)[C@@H](CNC(=O)Nc1ccccc1)CC1CCCCC1 [TPI 1577-7]

- Activity [1]: 164 µM
Compound: COc1ccc(CCN2CCC[C@H]2CN(C(=O)c2ccccc2)[C@@H](CNC(=O)c2ccccc2)CC2CCCCC2)cc1 [TPI 1572-18]

- Activity [1]: 132 µM
Compound: CNC[C@@H](CC1CCCCC1)N(C[C@@H]1CCCN1CCc1ccc(OC)cc1)C(=O)Nc1ccccc1 [TPI 1572-17]

- LC (lowest concentration with a ratio of 2 or higher in the derepression assay) [1]: 2 µg/mL
Compound: (D-Nal)-(L-Nal)-(D-Lys-εFmoc)-(Lys-εFmoc) ([d2Nal][2Nal][dK](Fmoc)K(Fmoc)) [TPI 792-17]

- Activity [1]: 88 µM
Compound: Cc1ccc(CCN2CCC[C@@H]2CN(C)[C@@H](CNC(=O)Nc2ccccc2)CC2CCCCC2)cc1 [TPI 1577-8]

- Activity [1]: 69 µM
Compound: COc1ccc(CCN2CCC[C@H]2CN(C(=O)Nc2ccc(C)cc2)[C@@H](CNC(=O)Nc2ccc(C)cc2)CC2CCCCC2)cc1 [TPI 1572-21]

- LC (lowest concentration with a ratio of 2 or higher in the derepression assay) [1]: 10 µg/mL
Compound: (D-Nal)-(D-pClPhe)-(L-pC1Phe)-(Lys-εFmoc) ([d2Nal][dPhe(4-Cl)][Phe(4-Cl)]K(Fmoc)) [TPI 792-9]

- Activity [1]: >283 µM
Compound: COc1ccc(CCN2CCC[C@H]2CNC(=O)Nc2ccccc2)cc1 [TPI 1572-8]

- Activity [1]: >241 µM
Compound: COc1ccc(CCN2CCC[C@@H]2CN(C)[C@@H](CNC(=O)Nc2ccccc2)CC(C)C)cc1 [TPI 1577-3]

- Activity [1]: 149 µM
Compound: COc1ccc(CCN2CCC[C@H]2CN(C(=O)Nc2ccccc2)[C@H](C)CNC(=O)Nc2ccccc2)cc1 [TPI 1572-16]

- LC (lowest concentration with a ratio of 2 or higher in the derepression assay) [1]: 2 µg/mL
Compound: (D-Nal)-(Lys-εFmoc)-(L-pClPhe)-(Lys-εFmoc) ([d2Nal]K(Fmoc)[Phe(4-Cl)]K(Fmoc)) [TPI 792-3]

- Activity [1]: 171 µM
Compound: COc1ccc(CCN2CCC[C@H]2CN(CCNC(=O)Nc2ccccc2)C(=O)Nc2ccccc2)cc1 [TPI 1572-15]

The remaining lines, values behind:

Compound: COc1ccc(CCN2CCC[C@@H]2CN(C)[C@@H](CNC(=O)Nc2ccc(I)cc2)CC2CCCCC2)cc1 [TPI 1567-13]
- Activity [1]: 58 µM
- ability to induce apoptosis in Jurkat cells [2]: capable of inducing apoptosis

Compound: COc1ccc(CCN2C[C@@H](O)C[C@@H]2CN(C(=O)Nc2ccccc2)[C@@H](CNC(=O)Nc2ccccc2)CC2CCCCC2)cc1 [TPI 1567-23]
- Activity [1]: 35 µM

Compound: (L-ThiAla)-(Lys-εFmoc)-(D-Nal)-(Lys-εFmoc) ([2Thi]K(Fmoc)[d2Nal]K(Fmoc)) [TPI 792-19]
- LC (lowest concentration with a ratio of 2 or higher in the derepression assay) [1]: 2 µg/mL

Compound: COc1ccc(CCN2CCC[C@@H]2CN(C)[C@@H](CNC(=O)Nc2cc(Br)cc(Br)c2)CC2CCCCC2)cc1 [TPI 1567-14]
- Activity [1]: 81 µM
- ability to induce apoptosis in Jurkat cells [2]: capable of inducing apoptosis

Compound: COc1ccc(CCN(C(=O)Nc2ccccc2)[C@H](Cc2ccccc2)CN(C(=O)Nc2ccccc2)[C@@H](CNC(=O)Nc2ccccc2)CC2CCCCC2)cc1 [TPI 1396-31]
- Activity (relative caspase-3 activity, ratio of Vmax with compound to Vmax of caspase-3 and XIAP controls) [1, 5]: 1.3

Compound: (L-Cha)-(D-Na1)-(L-Trp)-(L-ThiAla) ([Cha][d2Nal]W[2Thi]) [TPI 1332-41]
- reversing XIAP-mediated suppression of caspase 3 [1]: Active

Compound: CCN1CCC[C@@H]1CN(C)[C@@H](CNC(=O)Nc1ccccc1)CC1CCCCC1 [TPI 1567-5]
- Activity [1]: 209 µM

Compound: (L-Ala)-(L-Trp)-(L-Trp)-(L-ThiAla) (AWW[2Thi]) [TPI 1332-1]
- reversing XIAP-mediated suppression of caspase 3 [1]: Active

Compound: CCCCCCCN1C(=O)C(=O)N(C(CCCC)CNCc2ccccc2)CC1Cc1ccc2ccccc2c1 (stereo not shown) [TPI 1391-21]
- % nonviable cells ([2]; 1 μM, 20 hours): 16%
- % nonviable cells ([2]; 5 μM (first column headed 5), 20 hours): 11%
- % nonviable cells ([2]; 5 μM (second column headed 5), 20 hours): 18%
- % nonviable cells ([2]; 10 μM, 20 hours): 44%
- % nonviable cells ([2]; 25 μM, 20 hours): 91%
- % nonviable cells ([2]; 50 μM, 20 hours): 94%
- pEC50 ([3]; amount of compound necessary to restore caspase-3 activity to 50% of Vmax): 4.47
- Relative Potency ([3]; fold relative to SMAC AVPI tetrapeptide): 3.7

Compound: CN(CCCCC(CNC(=O)Nc1ccccc1)N(CC1CCCN1CCC12CC3CC(CC(C3)C1)C2)C(=O)Nc1ccccc1)C(=O)Nc1ccccc1 (stereo not shown) [TPI 1396-11]
- Activity (relative caspase-3 activity, ratio of Vmax with compound to Vmax of caspase-3 and XIAP controls) ([1]; Table X, R2 = L-Proline): 2.6
- activity in the derepression assay using full length XIAP ([1]; active / inactive): active
- % nonviable cells ([2]; 1 µM): 14%
- % nonviable cells ([2]; 10 μM): 90%
- % nonviable cells ([2]; 25 µM): 90%
- % nonviable cells ([2]; 50 µM): 90%
- average LD50 for the 60 cell lines [4]: 10 ± 2.8 µM
- median LD50 for the 60 cell lines [4]: 17 µM

Compound: (L-ThiAla)-(Lys-εFmoc)-(L-pClPhe)-(pF-D-F) ([2Thi]K(Fmoc)[Phe(4-Cl)][dPhe(4-F)]) [TPI 792-22]
- LC (lowest concentration with a ratio of 2 or higher in the derepression assay) [1]: 2 µg/mL

Compound: COc1ccc(CCN2CCC[C@@H]2CN(C)[C@@H](CNC(=O)Nc2ccc(C)cc2)CC2CCCCC2)cc1 [TPI 1567-11]
- Activity [1]: 75 µM
- ability to induce apoptosis in Jurkat cells [2]: capable of inducing apoptosis

Compound: COc1ccc(CCN2CCC[C@H]2CN(C(=O)Nc2ccc([N+](=O)[O-])cc2)[C@@H](CNC(=O)Nc2ccc([N+](=O)[O-])cc2)CC2CCCCC2)cc1 [TPI 1572-23]
- Activity [1]: 94 µM

Compound: CN(C[C@@H]1CCCN1CCC12CC3CC(CC(C3)C1)C2)[C@H](CCCCNC(=O)Nc1ccccc1)CNC(=O)Nc1ccccc1 [TPI 1567-18]
- Activity [1]: 61 µM

Compound: COc1ccc(CCN(CCCC[C@@H](CN(C(=O)Nc2ccccc2)[C@@H](CNC(=O)Nc2ccccc2)CC2CCCCC2)N(C)C(=O)Nc2ccccc2)C(=O)Nc2ccccc2)cc1 [TPI 1396-25]
- Activity (relative caspase-3 activity, ratio of Vmax with compound to Vmax of caspase-3 and XIAP controls) [1, 5]: 1.6

Compound: COc1ccc(CCN2CCC[C@@H]2CN(C)[C@@H](CNC(=O)Nc2ccc(F)cc2)CC2CCCCC2)cc1 [TPI 1567-12]
- Activity [1]: 124 µM
- ability to induce apoptosis in Jurkat cells [2]: capable of inducing apoptosis

Compound: (L-ThiAla)-(D-pClPhe)-(L-pClPhe)-(Lys-εFmoc) ([2Thi][dPhe(4-Cl)][Phe(4-Cl)]K(Fmoc)) [TPI 792-27]
- LC (lowest concentration with a ratio of 2 or higher in the derepression assay) [1]: 2 µg/mL
